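Where inhibition never reached the appropriate level, the endpoint shown equals the highest concentration tested. Otherwise, values were interpolated linearly from a five-concentration, 48-hour dose response in 96-well plates. Abbreviation: GI50, concentration required for 50% inhibition of growth. The concentration for full growth arrest is given as TGI.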
Assays:
Experiment in all cases: inhibition of tumour cell growth, NCI panel, 48 h
SF-295 CNS = test system: SF-295 CNS
DU-145 prostate = test system: DU-145 prostate
NCI-H23 lung = test system: NCI-H23 lung
HCT-15 colon = test system: HCT-15 colon
ACHN renal = test system: ACHN renal
IGROV1 ovarian = test system: IGROV1 ovarian
SK-MEL-28 melanoma = test system: SK-MEL-28 melanoma
HT29 colon = test system: HT29 colon
MALME-3M melanoma = test system: MALME-3M melanoma
RXF 393 renal = test system: RXF 393 renal

Compound	GI50 (SF-295 CNS) [µM]	TGI (SF-295 CNS) [µM]	GI50 (DU-145 prostate) [µM]	TGI (DU-145 prostate) [µM]	GI50 (NCI-H23 lung) [µM]	TGI (NCI-H23 lung) [µM]	GI50 (HCT-15 colon) [µM]	TGI (HCT-15 colon) [µM]	GI50 (ACHN renal) [µM]	TGI (ACHN renal) [µM]	GI50 (IGROV1 ovarian) [µM]	TGI (IGROV1 ovarian) [µM]	TGI (SK-MEL-28 melanoma) [µM]	TGI (HT29 colon) [µM]	TGI (MALME-3M melanoma) [µM]	TGI (RXF 393 renal) [µM]	GI50 (SK-MEL-28 melanoma) [µM]	GI50 (HT29 colon) [µM]	GI50 (MALME-3M melanoma) [µM]	GI50 (RXF 393 renal) [µM]
CCOC(=O)/C(C=Nc1ccc(-c2nc3ccccc3[nH]2)cc1)=C(/C)O	16.4	> 50	10.1	33.3	15	31	10.1	24.4	15.4	42.4	7.35	16.2								
COC(=O)CC1C[C@H](C#N)N(C(=O)c2ccccc2)C[C@@H]1CC[N+](=O)[O-] (some centres undefined)		> 100				> 100		> 100		> 100		> 100	> 100	> 100	> 100	> 100				
CN(O)C(=O)SCC(NC(=O)CCC(N)C(=O)O)C(=O)NCC(=O)O (centres undefined)		> 2			> 2000	> 2000	> 2000		> 2000	> 2000	> 2000	> 2000	> 2000	> 2000	> 2000	> 2000	> 2000	> 2000	> 2000	> 2000
CCOC(=O)c1c(C)nc2c(c1N)CC(=O)N2Cc1ccc(OC)cc1	2.53	7.37	> 100	> 100	4.26	> 100			9.56	> 100	80.3	> 100	> 100	> 100	> 100		> 100	> 100	> 100	
O=C(NCCCCNc1cccccc1=O)OCc1ccccc1		> 100				> 100		> 100		> 100		> 100	> 100	> 100	> 100					
CCN(CC)c1c(C(=O)/C=C/c2ccc(Cl)cc2)c(-c2ccccc2)nn(C)c1=O		3.38				3.1		3.31		3.38		4.21	3.02	3.32	4.35	2.8				
CN1CCC2(CC1)ONC1=NCCN12	44.5	> 100	51.3	> 100	34.5	> 100	24.1	> 100	23.7	74.5			> 100	> 100	73.7		> 100	53.7	20.1	
COC12C=C/C(=C(/C(=O)OCc3cncnc3)C(=O)CCCCCCCCC3(OC)C=C/C(=C(/C(=O)OCc4cncnc4)C(=O)CCCCCCCC1)O3)O2	0.326	1.74	0.5	2.55	0.186	0.839	0.308	1.34	0.36	1.08	0.589	1.96	1.65	1.09		0.714	0.325	0.21		0.199
